Experimental data taken from article PMC3814362 (Nucleic Acids Research, 2013).

What was measured:
[1] = target: T1, HflX-FL; HflX-WT (EcHflX) (Escherichia coli, UniProt P25519); test: mant fluorescence emission; assay type: binding; settings: labelled compound; 5 µM protein, 1 µM mant-ATP, pH 8.0, 5 mM MgCl2
T1 sequence (P25519 1-426): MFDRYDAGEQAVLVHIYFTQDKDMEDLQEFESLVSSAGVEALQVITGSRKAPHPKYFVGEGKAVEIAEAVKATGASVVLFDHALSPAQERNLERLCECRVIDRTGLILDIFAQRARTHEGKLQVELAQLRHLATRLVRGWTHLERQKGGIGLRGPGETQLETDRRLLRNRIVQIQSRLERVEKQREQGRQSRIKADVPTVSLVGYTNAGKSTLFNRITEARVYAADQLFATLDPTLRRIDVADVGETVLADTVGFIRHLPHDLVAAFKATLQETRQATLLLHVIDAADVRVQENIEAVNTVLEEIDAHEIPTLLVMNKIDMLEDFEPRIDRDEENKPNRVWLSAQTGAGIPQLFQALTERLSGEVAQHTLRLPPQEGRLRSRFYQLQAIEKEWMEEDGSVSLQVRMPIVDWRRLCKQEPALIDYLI

[2] = target: T2, HflX-ND1 (Escherichia coli, UniProt P25519); test: mant fluorescence emission; assay type: binding; settings: labelled compound; 5 µM protein, 1 µM mant-ATP, pH 8.0, 5 mM MgCl2
T2 sequence (P25519 1-120): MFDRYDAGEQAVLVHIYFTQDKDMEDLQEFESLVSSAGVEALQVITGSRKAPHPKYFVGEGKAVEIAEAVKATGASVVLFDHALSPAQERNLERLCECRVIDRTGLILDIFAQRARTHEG

CNc1ccccc1C(=O)O[C@H]1[C@@H](O)[C@H](n2cnc3c(N)ncnc32)O[C@@H]1COP(=O)(O)OP(=O)(O)OP(=O)(O)O [mant-ATP]
mant fluorescence emission (ex 355 nm) [1]: HflX-ND1, like the full-length protein, binds mant-ATP
mant fluorescence emission (ex 355 nm) [2]: HflX-ND1, like the full-length protein, binds mant-ATP
